# Experimental data from US8236820B2, “Anti-inflammatory compounds and uses thereof” (priority 2007, dated 2012).
# Where two headings read alike, the source gives them in different places.
# Experiments:
# MDA-MB231 = assay: Cell viability (MTT) assay, 24-h IC50, MDA-MB231; type: cell-based, human
# BxPC-3 = assay: Cell viability (MTT) assay, 24-h IC50, BxPC-3
# Protocol: Cells were incubated at 37° C. in 5% CO2. Cells were seeded at 5.5×10^4 cells/cm^2, allowed to attach overnight, and the following morning cells were treated with each of the test compounds.
# Cell viability assay: We used an assay based on the reduction of 3-(4,5-dimethylthiazol-2-yl)-2,5-diphenyltetrazolium bromide dye (MTT), which was determined according to the manufacture's protocol (Promega, Madison, Wis., USA).
# MCF-7 = assay: Cell viability (MTT) assay, 24-h IC50, MCF-7; type: cell-based, human
# HT29 = assay: Cell viability (MTT) assay, 24-h IC50, HT29; type: cell-based, human
# MIA-PaCa-2 = assay: Cell viability (MTT) assay, 24-h IC50, MIA-PaCa-2; type: cell-based, human
# SW480 = assay: Cell viability (MTT) assay, 24-h IC50, SW480; type: cell-based, human
# [1] = test system: MDA-MB 231 human breast cancer cells; assay: Cell proliferation assay (BrdU incorporation) in MDA-MB231; type: cell-based; details: MDA-MB231, each compound at its IC50 concentration
# Source text: Cell proliferation assay: To determine cell proliferation, we measured the incorporation of 5-bromo-2′-deoxyuridine (BrdU) into newly synthesized cellular DNA, following the manufacture's instructions (BD Biosciences, San Jose, Calif.).
# (§1) As summarized in Table 2 below, in MDA-MB231 cells, all six compounds, each used at its IC50 concentration, a) inhibited cell proliferation between 6% and 50% compared to controls; b) induced both early and late apoptosis, as well as necrosis; and c) inhibited the G1 to S cell cycle phase transition. In this Table, the values for proliferation are the percentage of the corresponding control values. Those for apoptosis and necrosis refer to the percentage of cells in each category with respect to the entire cell population, and are to be compared to the control (vehicle only-treated) cells (uppermost row).
# [2] = test system: MDA-MB 231 human breast cancer cells; assay: Annexin V and propidium iodide staining in MDA-MB231; type: cell-based; details: MDA-MB231, compound at its IC50, 24 h; for Necrosis (%): % of entire cell population (control 0.6); for Early apoptosis (%): % of entire cell population (control 1.4); for Late apoptosis (%): % of entire cell population (control 2.0)
# Protocol: Annexin V and propidium iodide (PI) staining: Cells were seeded at a density of 1×10^5 cells/well and treated for 24 h with various concentrations of each compound or equivalent volumes of DMSO. Briefly, after incubation with the test compounds, cells were trypsinized and stained with Annexin V-FITC (Invitrogen) and PI (0.5 μg/ml). Following incubation at room temperature for 15 min in the dark, annexin V-FITC and PI fluorescence intensities were analyzed by FACScaliber (BD Bioscience). Annexin V (+)/PI (−) cells are in early apoptosis, annexin V (+)/PI (+) cells are in late apoptosis (secondary necrosis), and annexin V (−)/ PI (+) cells are necrotic cells.
# as §1
# [3] = test system: spermidine/spermine N^1-acetyltransferase (SSAT); assay: SSAT enzymatic activity in SW480 cells; type: cell-based, human; details: SW480, 24 h; phospho-sulindac I 85 μM; P<0.05 versus control
# Protocol: (§2) SW480 cells were incubated without or with phospho-sulindac I (P-S) for up to 24 h and SSAT activity was determined at each time point by determining the amount of labelled N1-acetylspermidine synthesized from [^14C]acetyl-CoA and unlabeled spermidine.
# (§3) The effect of phospho-sulindac I on polyamines is mediated, at least in part, by activation of SSAT by phospho-sulindac I. It is known that conventional sulindac induces SSAT activity (Babbar et al., Cyclooxygenase-independent induction of apoptosis by sulindac sulfone is mediated by polyamines in colon cancer. J Biol Chem 2003; 278(48):47762-75.). Incubation of HT-29 and SW480 cells with 85 μM phospho-sulindac I for 24 h leads to a 3- and 4.4-fold increase of SSAT activity (P<0.05 versus control), respectively. On the other hand, incubation with sulindac led to a 1.5 and 2.5-fold increase of SSAT activity (P<0.05 versus control) in HT-29 and SW480 cells, respectively.
# APC^Min/+ mice = details: literature (Yang et al. 2003); cited from earlier work
# [4] = test system: spermidine/spermine N^1-acetyltransferase (SSAT); assay: SSAT enzymatic activity in HT-29 cells; type: cell-based, human; details: HT-29, 24 h; phospho-sulindac I 85 μM; P<0.05 versus control
# Protocol: as §2, §3
# [5] = type: in vivo; details: 5 days oral gavage; phospho-sulindac I 317 mg/kg/d, sulindac 200 mg/kg/day; 8 mice/group
# Protocol: Phospho-sulindac I lacked gastrointestinal toxicity in mice; gastrointestinal toxicity is the major side effect of sulindac as well as of the entire class of NSAIDs. We evaluated in mice the potential toxicity of phospho-sulindac I. Three groups, each consisting of 8 female C57BL/6J+/+mice 6 wks of age, were treated for 5 days by oral gavage with equimolar amounts of phospho-sulindac I (317 mg/kg/d) or conventional sulindac (200 mg/kg/day) or vehicle. Mice were weighed at time 0 and on days 3 and 5. Mice surviving to the end of the study were euthanized and necropsied.
# The stomachs of sulindac-treated animals were larger than those of the other two groups and in some the liver appeared hyperemic.
# [6] = Homo sapiens, MDA-MB-231, MDA-MB231 breast cancer cells, 24 h, read-out: 24-h IC50
# [7] = Homo sapiens, BXPC-3, 24 h, read-out: 24-h IC50
# [8] = Homo sapiens, MCF7, MCF-7 breast cancer cells, 24 h, read-out: 24-h IC50
# [9] = Homo sapiens, HT-29, HT29 colon cancer cells, 24 h, read-out: 24-h IC50
# [10] = Homo sapiens, MIA-PaCa-2 pancreatic cancer cells, 24 h, read-out: 24-h IC50
# [11] = Homo sapiens, SW480 colon cancer cells, 24 h, read-out: 24-h IC50
# [12] = MDA-MB231 breast cancer cells, 24 h, read-out: 24-h IC50
# [13] = read-out: 24-h IC50, BxPC-3 pancreatic cancer cells, 24 h
# [14] = MCF-7 breast cancer cells, 24 h, read-out: 24-h IC50
# [15] = HT29 colon cancer cells, 24 h, read-out: 24-h IC50
# [16] = MIA-PaCa-2 pancreatic cancer cells, 24 h, read-out: 24-h IC50
# [17] = SW480 colon cancer cells, 24 h, read-out: 24-h IC50
# [18] = Homo sapiens, BXPC-3, 24 h, read-out: IC50 (growth of human cancer cells)
# [19] = Homo sapiens, MDA-MB-231, 24 h, read-out: 24-h IC50
# [20] = Homo sapiens, MCF7, 24 h, read-out: 24-h IC50
# [21] = Homo sapiens, HT-29, 24 h, read-out: 24-h IC50
# [22] = Homo sapiens, MIA PaCa-2, 24 h, read-out: 24-h IC50
# [23] = Homo sapiens, SW480, 24 h, read-out: 24-h IC50
SMILES,IC50 (MDA-MB231; [6]) [µM],IC50 (BxPC-3; [7]) [µM],IC50 (MCF-7; [8]) [µM],IC50 (HT29; [9]) [µM],IC50 (MIA-PaCa-2; [10]) [µM],IC50 (SW480; [11]) [µM],Proliferation (% control) [1] [% control],Necrosis (%) [2] [%],Early apoptosis (%) [2] [%],Late apoptosis (%) [2] [%],also measured
"CC(=O)Oc1ccccc1C(=O)O [Aspirin, acetylsalicylic acid, reference compound]",> 2000,> 2000,> 2000,4000,> 2000,> 2000,–,–,–,–,–
CCOP1(=O)OCC(COC(=O)c2ccccc2OC(C)=O)O1 (stereo not drawn) [Glycero-phospho-aspirin I],–,–,–,–,–,–,94,0.3,4.8,3.2,IC50 (MDA-MB231; [12]): 199 µM; IC50 (BxPC-3; [13]): 63 µM; IC50 (MCF-7; [14]): 32 µM; IC50 (HT29; [15]): 54 µM; IC50 (MIA-PaCa-2; [16]): 303 µM; IC50 (SW480; [17]): 169 µM
"CC(C)Cc1ccc(C(C)C(=O)O)cc1 (stereo not drawn) [Ibuprofen, ibuprofen, reference compound]",748,1060,1230,1550,1280,1060,–,–,–,–,–
"CCCC(CCC)C(=O)O [VPA, Valproic acid, reference compound]",–,–,–,–,–,–,–,–,–,–,"IC50 (MDA-MB231; Homo sapiens, MDA-MB-231, Table 3, MDA-MB231, 24-h IC50, read-out: IC50 (growth of human cancer cells)): 4050 µM; IC50 (BxPC-3; [18]): 1680 µM; IC50 (MCF-7; Homo sapiens, MCF7, Table 3, MCF-7, 24-h IC50, read-out: IC50 (growth of human cancer cells)): 1780 µM; IC50 (HT29; Homo sapiens, Table 3, HT-29, 24-h IC50, read-out: IC50 (growth of human cancer cells)): 3210 µM; IC50 (MIA-PaCa-2; Homo sapiens, MIA PaCa-2, Table 3, MIA PaCa2, 24-h IC50, read-out: IC50 (growth of human cancer cells)): 3080 µM; IC50 (SW480; Homo sapiens, Table 3, SW480, 24-h IC50, read-out: IC50 (growth of human cancer cells)): 3640 µM"
CCOP(=O)(OCC)OCC(COC(=O)c1ccccc1OC(C)=O)OP(=O)(OCC)OCC (stereo not drawn) [Glycero-phospho-aspirin II],–,–,–,–,–,–,52,0.4,2.4,2.2,IC50 (MDA-MB231; [12]): 360 µM; IC50 (BxPC-3; [13]): 38 µM; IC50 (MCF-7; [14]): 248 µM; IC50 (HT29; [15]): 40 µM; IC50 (MIA-PaCa-2; [16]): 242 µM; IC50 (SW480; [17]): 170 µM
CCCC(CCC)C(=O)Oc1ccc(COP(=O)(OCC)OCC)cc1 [Phosoho-VPA],–,–,–,–,–,–,–,–,–,–,"IC50 (MDA-MB231; Homo sapiens, MDA-MB-231, 24 h, read-out: IC50 (growth of human cancer cells)): 30 µM; IC50 (BxPC-3; [18]): 36 µM; IC50 (MCF-7; Homo sapiens, MCF7, 24 h, read-out: IC50 (growth of human cancer cells)): 51 µM; IC50 (HT29; Homo sapiens, HT-29, 24 h, read-out: IC50 (growth of human cancer cells)): 13 µM; IC50 (MIA-PaCa-2; Homo sapiens, MIA PaCa-2, 24 h, read-out: IC50 (growth of human cancer cells)): 89 µM; IC50 (SW480; Homo sapiens, SW480, 24 h, read-out: IC50 (growth of human cancer cells)): 59 µM"
CCOP(=O)(OCC)OCCCCOC(=O)C(C)c1ccc(CC(C)C)cc1 (stereo not drawn) [Phospho-Ibuprofen],–,53,–,–,–,–,50,5.6,7.4,43.2,IC50 (MDA-MB231; [19]): 28 µM; IC50 (MCF-7; [20]): 79 µM; IC50 (HT29; [21]): 82 µM; IC50 (MIA-PaCa-2; [22]): 104 µM; IC50 (SW480; [23]): 75 µM
CCOP(=O)(OCC)OCCCCOC(=O)CC1=C(C)/C(=C/c2ccc(SC)cc2)c2ccc(F)cc21 [Phospho-sulindac II],–,32,–,–,–,–,52,2.6,5.0,23.2,IC50 (MDA-MB231; [19]): 18 µM; IC50 (MCF-7; [20]): 38 µM; IC50 (HT29; [21]): 70 µM; IC50 (MIA-PaCa-2; [22]): 92 µM; IC50 (SW480; [23]): 73 µM
"CC1=C(CC(=O)O)c2cc(F)ccc2C1=Cc1ccc([S+](C)[O-])cc1 (stereo not drawn) [Sulindac, 2-[6-fluoro-2-methyl-3-[(4-methylsulfinylphenyl)methylidene]inden-1-yl]-acetic acid, reference compound]",530,489,1130,1170,1040,900,–,–,–,–,increase of SSAT activity [3]: 2.5 fold; effect on formation of tumors in the colon of Min mice (APC^Min/+ mice): stimulates the formation of tumors in the colon; increase of SSAT activity [4]: 1.5 fold; mortality [5]: 75%
"CC(C(=O)O)c1ccc(-c2ccccc2)c(F)c1 (stereo not drawn) [Flurobiprofen, flurbiprofen, reference compound]",823,825,1430,1670,1270,1220,–,–,–,–,–
CCOP(=O)(OCC)OCCCCOC(=O)C(C)c1ccc(-c2ccccc2)c(F)c1 (stereo not drawn) [Phospho-Flurobiprofen],–,34,–,–,–,–,42,1.7,5.3,20.6,IC50 (MDA-MB231; [19]): 17 µM; IC50 (MCF-7; [20]): 65 µM; IC50 (HT29; [21]): 80 µM; IC50 (MIA-PaCa-2; [22]): 135 µM; IC50 (SW480; [23]): 104 µM
